Measured values from patent publication US10188677B2, “Iron supplement composition” (THE D DROPS COMPANY INC., priority 2011, dated 2019).
Marks after values point to notes of the source that are not given here.

Assays:
Format in all cases: physicochemical
[1] = Drop consistency for Eurodropper dispensing
Description: Drop consistency was examined to determine suitability of various dispersions for Eurodropper dispensing. Preparations of various iron salts, at concentrations of 66 mg/mL, were made using medium chain triglyceride oil. Each sample was shaken vigorously and then inverted to dispense 10 drops. This was repeated until 60 drops were dispensed.
The effect of carrier liquid type on drop consistency was next examined. Preparations of ferrous fumarate (149 μm particle size) were prepared and drop consistency was measured using similar methodology to that described above.

[2] = Settling: time for iron salt particulate to show evidence of settling in carrier liquid
Description: Settling behavior was also tested for each carrier liquid. Test tubes of carrier liquid were loaded with either ferrous sulfate (dried) or ferrous fumarate at concentrations of 66 mg/mL of elemental iron. […] Settling was then allowed to proceed and the time required for the iron salt particulate to show evidence of settling was recorded. Evidence of settling was considered as a reduction in opacity throughout the top 1 cm of liquid in the test tube.

[3] = Dispersion: number of test tube inversions to achieve even dispersion of iron salt in carrier liquid; details: for Dispersion (# of inversions): 66 mg/mL elemental iron
Description: (§1) Iron salt in the form of ferrous sulfate (dried) and ferrous fumarate were investigated for dispersibility and settling behavior in a range of carrier liquids. Sufficient iron salt was added to test tubes to achieve concentrations of elemental iron equivalent to 66 mg/mL suspension (i.e., 2 mg/drop, a commercially-viable concentration for infant supplementation).
The initial preparation of dry powder iron salts into suspension was achieved by weighing the desired amount of dry powder, which was added to the liquid in a capped test tube. The combination was shaken for about two minutes, and it was then allowed to settle overnight to promote thorough particle whetting.
Suitability of the preparation for suspension was next tested by counting the number inversions of the test tube inversions required to achieve an even dispersion of particles in the carrier liquid. Each replicate began with iron salt fully settled at the bottom of the test tube.

[4] = Viscosity and density of carrier liquids
Description: as §1

[5] = iron salt 66 mg/mL in medium chain triglyceride oil
[6] = carrier: medium chain triglyceride, 66 mg/mL elemental iron
[7] = carrier: olive oil, 66 mg/mL elemental iron
[8] = carrier: rapeseed oil, 66 mg/mL elemental iron
[9] = carrier: medium chain triglyceride

## O=S(=O)([O-])[O-].[Fe+2] [Ferrous sulfate (dried), ferrous sulfate (dried)]
[1]; [5]
  Dispensing of dispersion from the Eurodropper: ** Dispersion failed to dispense at all from the Eurodropper because the powder clumped in the oil, and occluded opening.
[2]; [6]
  Settling: 42.3 ± 8.5 s
[2]; [7]
  Settling: 213.3 ± 7.6 s
[2]; [8]
  Settling: 238.7 ± 5.9 s
[3]; [9]
  Dispersion (# of inversions): 7.3 ± 0.6 # of inversions
[3]; carrier: olive oil
  Dispersion (# of inversions): 27.3 ± 4.5 # of inversions
[3]; carrier: rapeseed oil
  Dispersion (# of inversions): 62.0 ± 6.0 # of inversions
[3]; water-based preparations
  Dispersibility: not at all

## O=C([O-])/C=C/C(=O)[O-].[Fe+2] [Ferrous fumarate, ferrous fumarate]
[1]; ferrous fumarate 149 μm particle size, carrier: canola oil
  Average 10 Drop Weight (mg ± SD): 284.8 ± 4.7 mg
[1]; ferrous fumarate 149 μm particle size, carrier: medium chain triglyceride
  Average 10 Drop Weight (mg ± SD): 276.2 ± 3.0 mg
[1]; ferrous fumarate 149 μm particle size, carrier: olive oil
  Average 10 Drop Weight (mg ± SD): 285.8 ± 3.5 mg
[1]; ferrous fumarate 149 μm particle size, carrier: water
  Average 10 Drop Weight (mg ± SD): Occluded *
[1]; iron salt 66 mg/mL in medium chain triglyceride oil, Eurodropper, 60 drops, listed as Ferrous fumarate (Sigma, XXX μm)
  Average 10 Drop Weight (mg ± SD): 264.7 ± 10.2 mg
[1]; iron salt 66 mg/mL in medium chain triglyceride oil, Eurodropper, 60 drops, listed as Ferrous fumarate (Watson, 149 μm)
  Average 10 Drop Weight (mg ± SD): 277.0 ± 10.3 mg
[1]; regardless of carrier liquid
  Performance in the Eurodropper: consistent performance
[2]; [6]
  Settling: 16.3 ± 1.2 s
[2]; [7]
  Settling: 95.5 ± 4.9 s
[2]; [8]
  Settling: 144.0 ± 5.7 s
[2]; carrier: water, 66 mg/mL elemental iron
  Settling: 1.0 ± 0.5 s
[2]; in water
  Settling: extremely rapid settling
[3]; carrier: medium chain triglyceride oil, relative to the other carriers
  Dispersibility: acceptably rapid
[3]; [9]
  Dispersion (# of inversions): 56.4 ± 10.6 # of inversions
[3]; carrier: olive oil
  Dispersion (# of inversions): 84.0 ± 1.4 # of inversions
[3]; carrier: rapeseed oil
  Dispersion (# of inversions): 167.0 ± 7.0 # of inversions
[3]; carrier: water
  Dispersion (# of inversions): 4.3 ± 0.6 # of inversions
[3]; water-based preparations
  Dispersibility: very easily

## O [Water]
[4]
  Density: 1 g/mL
[4]; @ 20° C.
  Viscosity: 1 cP

## O=P([O-])([O-])OP(=O)([O-])[O-].[Fe+2].[Fe+2] [Ferrous pyrophosphate]
[1]; [5]
  Dispensing of dispersion from the Eurodropper: * Dispersion failed to dispense from the Eurodropper after 15 drops.
[1]; iron salt 66 mg/mL in medium chain triglyceride oil, Eurodropper, 60 drops
  Average 10 Drop Weight (mg ± SD): 266 * mg
